Assay results: the supplement of paper PMC10307832

Experiments:
Assay in all cases: relative viability (nuclei count vs DMSO), 5 days (fraction); higher = more cells survive
[1] = compound: CCOC1=CC=CC=C1N=NC2=C(NN(C2=O)C3=NC(=CS3)C4=CC=CC=C4)C [BAM7] + Cc1nc(NC(=O)N2CCC[C@H]2C(N)=O)sc1-c1ccnc(C(C)(C)C(F)(F)F)c1 [Alpelisib] (partner 2 µM)
Outline: (§1)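 Values are medians from duplicate plates. Each reflects relative viability, defined as the nuclei count of treated wells over that of vehicle wells. Lung cancer cell lines in 1536-well plates were pin-tool dosed one day after seeding with one drug alone or with a fixed anchor-drug dose plus five library-drug doses (not always all listed) in √10 steps, then fixed, stained and imaged at 4× after 5 days.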

[2] = compound: CCOC1=CC=CC=C1N=NC2=C(NN(C2=O)C3=NC(=CS3)C4=CC=CC=C4)C [BAM7] + O=C(CCCCCCC(=O)Nc1ccccc1)NO [Vorinostat] (partner 1 µM)
Outline: as §1

[3] = compound: CCn1c(-c2nonc2N)nc2c(C#CC(C)(C)O)ncc(OC[C@H]3CCCNC3)c21 + C[C@]1(O)C[C@@H](c2nc(-c3ccc4ccc(-c5ccccc5)nc4c3)c3c(N)nccn32)C1 [Linsitinib] (partner 1 µM)
Outline: as §1

[4] = compound: CCn1c(-c2nonc2N)nc2c(C#CC(C)(C)O)ncc(OC[C@H]3CCCNC3)c21 + Cc1nc(Nc2ncc(C(=O)Nc3c(C)cccc3Cl)s2)cc(N2CCN(CCO)CC2)n1 [Dasatinib] (partner 0.075 µM)
Outline: as §1

UMC-11
relative viability ([1]; first compound 0.5 µM): 1.11
relative viability ([1]; first compound 5 µM): 1.12
relative viability ([1]; first compound 15.81 µM): 0.992
relative viability ([1]; first compound 50 µM): 0.989
relative viability ([2]; first compound 0.5 µM): 0.37
relative viability ([2]; first compound 5 µM): 0.478
relative viability ([2]; first compound 15.81 µM): 0.469
relative viability ([2]; first compound 50 µM): 0.362
relative viability ([3]; first compound 0.01 µM): 0.991
relative viability ([3]; first compound 0.03162 µM): 1.05
relative viability ([3]; first compound 0.1 µM): 0.974
relative viability ([3]; first compound 0.3162 µM): 0.976
relative viability ([3]; first compound 1 µM): 1.04
relative viability ([4]; first compound 0.01 µM): 0.449
relative viability ([4]; first compound 0.03162 µM): 0.498
relative viability ([4]; first compound 0.1 µM): 0.438
relative viability ([4]; first compound 0.3162 µM): 0.449
relative viability ([4]; first compound 1 µM): 0.399
